Measured values from publication PMC10996005, “Identification and Development of Cyclic Peptide Inhibitors of Hypoxia Inducible Factors 1 and 2 That Disrupt Hypoxia-Response Signaling in Cancer Cells” (Journal of the American Chemical Society, 2024).
Where a SMILES comes first, the peptide text is derived from it. [ ]: non-standard residue; d: D form. Phe(4-I) = N[C@@H](Cc1ccc(I)cc1)C(=O)O

Tests used:
VEGF gene in 786-O cells = test: qPCR of HIF-2-driven VEGF in 786-O cells; type: cell-based; settings: 50 μM
Experimental: (§1) The effect of our lead inhibitor on hypoxia-response signaling was measured by qPCR in cancer cell lines. Cells were treated with either 2 μM of an analogue of the HIF-2-specific inhibitor belzutifan, PT2399 (control), or 50 μM of cyclo-CRLII(4-iodo)F, incubated in hypoxia for […], and the levels of the hypoxia-response genes CAIX([41],[42]) and VEGF([43]) were measured by qPCR. We observed a 51% drop in CAIX transcription and a 43% drop in VEGF transcription in hypoxic MCF-7 (breast cancer) cells treated with 50 μM of cyclo-CRLII(4-iodo)F versus hypoxic MCF-7 cells treated with DMSO only (Figure 6e). […] We also observed a 49% drop in CAIX expression in hypoxic HeLa (cervical cancer) cells treated with cyclo-CRLII(4-iodo)F (Figure S9b). […] We observed a 35% drop in HIF-2-driven VEGF transcription in 786-O cells treated with 50 μM of cyclo-CRLII(4-iodo)F compared to a 50% decrease in 786-O cells treated with PT2399. […]
(§2) Realtime PCR (qPCR) Assay
Cells were plated on 6cm dishes at 80% confluency and incubated overnight under normoxic conditions. The cells were then treated with compound and incubated for 18 hours in hypoxic conditions. After treatment, the cells were washed with PBS and lysed under hypoxic conditions. The total RNA was extracted from the cells using a commercial RNA extraction kit (Fisher Scientific) following the manufacturer's instructions. […]

HIF-2α PAS-B domain = target: T1, HIF-2α PAS-B domain (Homo sapiens, UniProt Q99814); test: MST binding to the PAS-B domain of HIF-2α; settings: MST KD ratio
T1 construct: made in house
Experimental: (§3) All reagents were purchased from Fisher Scientific or Sigma Aldrich UK unless specified otherwise.
(§4) Restriction enzymes and microbiology reagents were purchased from New England Biolabs Inc., Fisher Scientific (UK) or Promega (UK) and were used as directed by the manufacturer. Primers and oligonucleotides were synthesised by Integrated DNA Technologies (UK). DNA sequencing was carried out by Eurofins MWG Operon (Germany).
(§5) Construction of the RTHS and SICLOPPS library, screening, purification of recombinant HIF proteins, and the PLA was conducted as previously described in Miranda et al., J. Am. Chem. Soc., 2013, 135(28); […]
(§6) Protein labelling with MST dye
(§7) Protein was buffer exchanged from storage buffer into labelling buffer (0.1 M NaHCO3, pH 8.5) using a PD spintrap G-25 column (GE healthcare). The protein concentration was then adjusted to 20 µM.
(§8) The commercially sourced MST dye (NanoTemper) was prepared as a 470 µM solution in DMSO, which was then further diluted to 60 µM using labelling buffer. To the protein solution was added an equal volume of dye solution, and the labelling reaction was left for 1 hour in the dark at room temperature.
(§9) The labelled protein was separated from unreacted dye by elution through a PD minitrap G-25 column (GE healthcare). Labelled protein was then aliquoted and stored at -80 °C. Extent of labelling was measured by the absorbance obtained using the UV-vis mode on a NanoDrop ND-1000 Spectrophotometer (NanoDrop Technologies, USA).
(§10) Labelled protein was thawed on ice and diluted to 50 nM in assay buffer containing 50 mM Tris pH 8.0, 150 mM NaCl, 5% (v/v) glycerol, 1 mM TCEP and 0.05% TWEEN-20. The protein solution was then centrifuged at 12000 rpm for 15 minutes at 4 °C and left on ice. Compounds were prepared and serially diluted in DMSO at 10x assay concentration, before diluting to 2x assay concentration in assay buffer.
(§11) The 2x compound solutions were then mixed 1:1 (v/v) with 50 nM labelled protein solution and left to incubate for 1 hour at room temperature. Solutions were then loaded into Monolith NT.115 Premium Capillaries (NanoTemper) and placed in the sample tray. MST experiments were carried out

[1] = test system: CAIX and VEGF genes in MCF-7 cells; test: qPCR of hypoxia-response genes in MCF-7 cells; type: cell-based; settings: hypoxic MCF-7 cells, 50 μM, vs DMSO-treated hypoxic cells
Experimental: as §1, §2
Cells were plated on 6cm dishes at 80% confluency and incubated overnight under normoxic conditions. The cells were then treated with compound and incubated for 18 hours in hypoxic conditions. After treatment, the cells were washed with PBS and lysed under hypoxic conditions. The total RNA was extracted from the cells using a commercial RNA extraction kit (Fisher Scientific) following the manufacturer's instructions. A commercial reverse transcription kit (Promega) was used to generate cDNA. The MyTaq™ Mix master mix and appropriate primers targeting CAIX and VEGF were used to perform the qPCR reaction using a qPCR machine (Bio-Rad).

HIF-1α PAS-B domain = target: T2, HIF-1α PAS-B domain (Homo sapiens, UniProt Q16665); test: MST binding to the PAS-B domain of HIF-1α
T2 construct: made in house
Experimental: as §3, §4, §5, §6, §7, §8, §9, §10, §11

T2 sequence (Q16665 238-349 limits assumed): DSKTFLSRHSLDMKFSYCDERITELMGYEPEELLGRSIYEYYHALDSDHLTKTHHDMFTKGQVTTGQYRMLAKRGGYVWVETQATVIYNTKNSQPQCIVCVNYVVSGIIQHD
T1 sequence (Q99814 240-350 limits assumed): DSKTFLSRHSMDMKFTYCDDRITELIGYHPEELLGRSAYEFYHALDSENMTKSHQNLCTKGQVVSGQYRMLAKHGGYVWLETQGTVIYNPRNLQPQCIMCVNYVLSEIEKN

improvement in KD for HIF-2α PAS-B compared to the parent cyclic peptide (HIF-2α PAS-B domain): 6.5 fold
improvement in HIF-1α binding affinity compared to the parent cyclic peptide cyclo-CRLIIF (HIF-1α PAS-B domain; MST KD ratio): 4.6 fold
Kd (HIF-1α PAS-B domain; MST, mean ± SEM, n = 2 (n = 1 for most C1 analogues, n = 3 in Figure S2), read-out: KD for HIF-1α PAS-B): 800 ± 200 nM
SMILES: CC[C@H](C)[C@@H]1NC(=O)[C@H](CC(C)C)NC(=O)[C@H](CCCNC(=N)N)NC(=O)[C@H](CS)NC(=O)[C@H](Cc2ccc(I)cc2)NC(=O)[C@H]([C@@H](C)CC)NC1=O [cyclo-CRLII(4-iodo)F] (cyclo(CRLII[Phe(4-I)]))
drop in HIF-2-driven VEGF transcription (VEGF gene in 786-O cells): 35%
drop in CAIX transcription [1]: 51%
drop in VEGF transcription [1]: 43%
